# Measured values taken from article PMC12040169 (PLOS Biology, 2025).
# Experiment: in vitro
# Settings: human, hela cells, % viability
row,SMILES,"viability at 28.5 h, 10 µM [%]"
1,COCC(=O)N1CCN2C(=O)c3cc(-c4ccccc4F)ccc3NC(=O)[C@H]2C1 [CBK289587],82.4
2,O=C1Nc2ccc(-c3ccccc3F)cc2C(=O)N2CCN(C(=O)C3CCNCC3)C[C@H]12 [CBK289592],87.3
3,O=C1Nc2ccc(-c3ccc4c(c3)OCO4)cc2C(=O)N2CCN(C(=O)CO)C[C@H]12 [CBK289593],85.6
4,O=C1Nc2ccc(-c3ccc(Cl)cc3)cc2C(=O)N2CCN(C(=O)CO)C[C@H]12 [CBK289594],96.1
5,CCCNC(=O)N1CCN2C(=O)c3cc(-c4ccccc4F)ccc3NC(=O)[C@@H]2C1 [CBK289595],95.5
6,CC(=O)N1CCN2C(=O)c3cc(-c4ccc5c(c4)OCO5)ccc3NC(=O)[C@H]2C1 [CBK289597],90.1
7,O=C1N[C@@H](CC2CCCCC2)C(=O)N2CCN(C(=O)c3cccc(F)c3)C[C@H]12 [CBK289599],115
8,O=C1N[C@@H](Cc2ccc(F)cc2)C(=O)N2CCN(C(=O)c3cccc(F)c3)C[C@H]12 [CBK289600],111
9,N#Cc1ccc(C(=O)N2CCN3C(=O)[C@H](Cc4ccc(F)cc4)NC(=O)[C@H]3C2)cc1 [CBK289602],106
10,COc1ccc(C[C@@H]2NC(=O)[C@H]3CN(C(=O)c4cccc(F)c4)CCN3C2=O)cc1 [CBK289604],88.8
11,COC(=O)[C@@H]1CN(C(=O)C2CCCC2)CCN1C(=O)c1cccs1 [CBK289609],93.5
12,COC(=O)[C@@H]1CN(C(=O)c2cccs2)CCN1C(=O)c1cccnc1 [CBK289610],87
13,COC(=O)[C@@H]1CN(C(=O)Nc2ccccc2)CCN1S(C)(=O)=O [CBK289611],96.9
14,COc1ccc(C[C@@H]2NC(=O)[C@H]3CN(C(=O)Nc4cccc(OC)c4)CCN3C2=O)cc1 [CBK289617],98.9
15,COc1cccc(NC(=O)N2CCN3C(=O)[C@H](Cc4ccc(O)cc4)NC(=O)[C@@H]3C2)c1 [CBK289618],99
16,C=CCO[C@@H]1C[C@H]2C(=O)N3CCN(C(=O)NC4CCCCC4)C[C@H]3C(=O)N2C1 [CBK289619],82.5
17,COC(=O)[C@@H](C)NC(=O)[C@@H]1CN(C(=O)NC(C)C)CCN1C(=O)C1CCCCC1 [CBK289622],90.7
18,COC(=O)[C@@H](C)NC(=O)[C@@H]1CN(C(=O)NC(C)C)CCN1C(=O)c1cccs1 [CBK289624],110
19,COC(=O)[C@@H](C)NC(=O)[C@@H]1CN(C(=O)c2cccc(F)c2)CCN1S(C)(=O)=O [CBK289625],96.8
20,COC(=O)[C@@H](C)NC(=O)[C@H]1CN(S(=O)(=O)c2ccccc2)CCN1C(C)=O [CBK289626],88.2
21,COC(=O)[C@@H](C)NC(=O)[C@H]1CN(C(=O)Nc2ccccc2)CCN1C(C)=O [CBK289627],86.3
22,COC(=O)[C@@H](C)NC(=O)[C@H]1CN(C(=O)c2cccnc2)CCN1C(=O)c1cccs1 [CBK289628],82.4
23,COC(=O)[C@@H](C)NC(=O)[C@H]1CN(C(=O)Nc2ccccc2)CCN1C(=O)c1cccs1 [CBK289629],97.2
24,COC(=O)[C@@H](C)NC(=O)[C@H]1CN(C(=O)c2cccnc2)CCN1C(=O)NC(C)C [CBK289630],104
25,COC(=O)[C@@H](C)NC(=O)[C@H]1CN(C(=O)Nc2ccccc2)CCN1C(=O)NC(C)C [CBK289631],113
26,C[C@@H](c1ccccc1)N1C(=O)[C@@H]2CN(C(=O)CC3(CC(=O)O)CCCC3)CCN2C1=O [CBK289637],88.7
27,C[C@H](c1ccccc1)N1C(=O)[C@@H]2CN(C(=O)CC(C)(C)CC(=O)O)CCN2C1=O [CBK289639],114
28,O=C1[C@H]2CN(S(=O)(=O)c3ccc(F)cc3)CCN2C(=O)N1CCO [CBK289640],84.5
29,COCC(=O)N1CCN2C(=O)N(Cc3ccccc3)C(=O)[C@H]2C1 [CBK289641],91.4
30,c1ccc(-c2cc(CC3(NCC4CCCCC4)COC3)no2)nc1 [CBK289644],93
